What is called EC50 is the concentration needed to bring the measured effect to its halfway point.

This passage reports mrna remaining and EC50 results from patent US20260315464A1, “COMPOSITIONS, METHODS, AND SYSTEMS FOR MODULATING SPLICING OF MSH3” (REVIR THERAPEUTICS, INC., priority 2023, published 2026).

Structures are written as SMILES.

This test concerns MSH3. Briefly: QPCR assay for levels of MSH3 upon compound treatment in HEK293T or AD293 cells (fold-change of MSH3 transcript, EC50 of MSH3 downregulation; total MSH3 exons 13/14, exons 20/21; Table 8). To be noted: for mrna remaining at 1 µM / mrna remaining at 10 µM: Homo sapiens, fold-change of the MSH3 transcript, normalized to GAPDH; for mrna remaining at 1 µM: 1 μM compound; for mrna remaining at 10 µM: 10 μM compound; for EC50: EC50 of MSH3 downregulation, XtalPi. It is filed as cell-based. Summed up:
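HEK293T or AD293 cells were treated at 1 μM and […]; RNA-to-cDNA qPCR used TaqMan assays for total MSH3 (exons 13/14, exons 20/21) and poison-exon junctions exon 13/PE14A and exon 20/PE21A. Transcript levels were normalized to GAPDH.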

Consider `CN(c1ccc(N2Cc3c(C#N)cc(-c4nn(C)nc4Cl)cc3C2=O)nn1)C1C[C@]2(C)CC[C@](C)(C1)N2` (stereo partly drawn) [Compound 685, 6-(5-chloro-2-methyl-2H-1,2,3-triazol-4-yl)-2-(6-(((1R,5S)-1,5-dimethyl-8-azabicyclo[3.2.1]octan-3-yl)(methyl)amino)pyridazin-3-yl)-1-oxoisoindoline-4-carbonitrile], for which the mrna remaining at 1 µM came out at 24% and the mrna remaining at 10 µM was found to be 20%.
For `Cc1nn(C)nc1-c1cnc2c(c1)C(=O)N(c1ccc(N3CCC4(CCCN4)C3)nn1)C2` (stereo not shown) [Compound 566, 6-(6-(1,7-diazaspiro[4.4]nonan-7-yl)pyridazin-3-yl)-3-(2,5-dimethyl-2H-1,2,3-triazol-4-yl)-6,7-dihydro-5H-pyrrolo[3,4-b]pyridin-5-one], in that order: 133% and 60%.
For `Cc1nn(C)cc1-c1cnc2c(c1)C(=O)N(c1ccc(O[C@@H]3CC(C)(C)NC(C)(C)[C@@H]3F)nn1)C2` [Compound 211, 3-(1,3-dimethyl-1H-pyrazol-4-yl)-6-(6-(((3S,4R)-3-fluoro-2,2,6,6-tetramethylpiperidin-4-yl)oxy)pyridazin-3-yl)-6,7-dihydro-5H-pyrrolo[3,4-b]pyridin-5-one], in that order: 90% and 55%.
For `CC(C)(O)Cn1cc(-c2cc(F)c3c(c2)C(=O)N(c2ccc(OC4CC(C)(C)NC(C)(C)C4)nn2)C3)c(Cl)n1` [Compound 649, 6-(3-chloro-1-(2-hydroxy-2-methylpropyl)-1H-pyrazol-4-yl)-4-fluoro-2-(6-((2,2,6,6-tetramethylpiperidin-4-yl)oxy)pyridazin-3-yl)isoindolin-1-one], in that order: 106% and 63%.
As for `Cn1nc(Cl)c(-c2cnc3c(c2)C(=O)N(c2ccc(OC4CC(C)(C)NC(C)(C)C4)nn2)C3)n1` [Compound 493, 3-(5-chloro-2-methyl-2H-1,2,3-triazol-4-yl)-6-(6-((2,2,6,6-tetramethylpiperidin-4-yl)oxy)pyridazin-3-yl)-6,7-dihydro-5H-pyrrolo[3,4-b]pyridin-5-one], the mrna remaining at 1 µM is 57% and the mrna remaining at 10 µM was 13%.
For `CN(c1ccc(N2Cc3ncc(-c4cnn(C)n4)cc3C2=O)nn1)C1CC(C)(C)NC(C)(C)C1` [Compound 189, 6-(6-(methyl(2,2,6,6-tetramethylpiperidin-4-yl)amino)pyridazin-3-yl)-3-(2-methyl-2H-1,2,3-triazol-4-yl)-6,7-dihydro-5H-pyrrolo[3,4-b]pyridin-5-one], in that order: 73% and 23%.
As to `Cc1nn(C)nc1-c1cnc2c(n1)C(=O)N(c1ccc(O[C@H]3C[C@]4(C)CC[C@](C)(C3)N4)nn1)C2` [Compound 623, 3-(2,5-dimethyl-2H-1,2,3-triazol-4-yl)-6-(6-(((1R,3s,5S)-1,5-dimethyl-8-azabicyclo[3.2.1]octan-3-yl)oxy)pyridazin-3-yl)-6,7-dihydro-5H-pyrrolo[3,4-b]pyrazin-5-one], a half-maximal response (EC50) required 2990 nM, the mrna remaining at 1 µM came out at 60% and the mrna remaining at 10 µM came out at 13%.
With `Cc1nn(C)nc1-c1cc(F)c2c(c1)C(=O)N(c1ccc(N3CC4CCC(C3)N4)nn1)C2` [Compound 658, 2-(6-(3,8-diazabicyclo[3.2.1]octan-3-yl)pyridazin-3-yl)-6-(2,5-dimethyl-2H-1,2,3-triazol-4-yl)-4-fluoroisoindolin-1-one], the mrna remaining at 1 µM was found to be 132% and the mrna remaining at 10 µM came to 51%.
For `Cn1nc(Cl)c(-c2cc(F)c3c(c2)C(=O)N(c2ccc(N4CC[C@@H](NC(C)(C)C)C4)nn2)C3)n1` [Compound 656, (R)-2-(6-(3-(tert-butylamino)pyrrolidin-1-yl)pyridazin-3-yl)-6-(5-chloro-2-methyl-2H-1,2,3-triazol-4-yl)-4-fluoroisoindolin-1-one], in that order: 70% and 43%.
In the same order, the values of `Cc1nn(C)nc1-c1cc(Cl)c2c(c1)C(=O)N(c1ccc(OC3CC(C)(C)NC(C)(C)C3)nn1)C2` [Compound 664, 4-chloro-6-(2,5-dimethyl-2H-1,2,3-triazol-4-yl)-2-(6-((2,2,6,6-tetramethylpiperidin-4-yl)oxy)pyridazin-3-yl)isoindolin-1-one] are 94% and 20%.
For `Cc1nn(C)nc1-c1cnc2c(c1)C(=O)N(c1ccc(N3CC4CC3CN4)nn1)C2` (stereo not shown) [Compound 560, 6-(6-(2,5-diazabicyclo[2.2.1]heptan-2-yl)pyridazin-3-yl)-3-(2,5-dimethyl-2H-1,2,3-triazol-4-yl)-6,7-dihydro-5H-pyrrolo[3,4-b]pyridin-5-one], in that order: 81% and 29%.
With `Cc1nn(C)cc1-c1cnc2c(c1)C(=O)N(c1ccc(N(C3CC3)C3CC(C)(C)NC(C)(C)C3)nn1)C2` [Compound 487, 6-(6-(cyclopropyl(2,2,6,6-tetramethylpiperidin-4-yl)amino)pyridazin-3-yl)-3-(1,3-dimethyl-1H-pyrazol-4-yl)-6,7-dihydro-5H-pyrrolo[3,4-b]pyridin-5-one], the mrna remaining at 1 µM worked out at 133% and the mrna remaining at 10 µM is 31%.
As to `Cc1nc(C)c(-c2cc3c(cn2)CN(c2ccc(O[C@H]4C[C@]5(C)CC[C@](C)(C4)N5)nn2)C3=O)s1` [Compound 69, 2-(6-(((1R,3s,5S)-1,5-dimethyl-8-azabicyclo[3.2.1]octan-3-yl)oxy)pyridazin-3-yl)-6-(2,4-dimethylthiazol-5-yl)-2,3-dihydro-1H-pyrrolo[3,4-c]pyridin-1-one], the EC50 stood at 885 nM, the mrna remaining at 1 µM came out at 30% and the mrna remaining at 10 µM turned out to be 11%.
Turning to `Cc1nc(C)c(-c2cc(F)c3c(c2)C(=O)N(c2ccc(N(C)[C@H]4C[C@]5(C)CC[C@](C)(C4)N5)nn2)C3)s1` [Compound 289, 2-(6-(((1R,3s,5S)-1,5-dimethyl-8-azabicyclo[3.2.1]octan-3-yl)(methyl)amino)pyridazin-3-yl)-6-(2,4-dimethylthiazol-5-yl)-4-fluoroisoindolin-1-one], the mrna remaining at 1 µM came to 73% and the mrna remaining at 10 µM is 22%.
With `Cc1nn(C)nc1-c1cc(F)c2c(c1)C(=O)N(c1ccc(N(C)C3CC(C)(C)NC(C)(C)C3)nn1)C2` [Compound 293, 6-(2,5-dimethyl-2H-1,2,3-triazol-4-yl)-4-fluoro-2-(6-(methyl(2,2,6,6-tetramethylpiperidin-4-yl)amino)pyridazin-3-yl)isoindolin-1-one], the EC50 is approximately 1060 nM, the mrna remaining at 1 µM came to 54% and the mrna remaining at 10 µM was 12%.
On to `Cn1nc(Cl)c(-c2cc(F)c3c(c2)C(=O)N(c2ccc(N4CC5CC(C4)N5)nn2)C3)n1` [Compound 655, 2-(6-(3,6-diazabicyclo[3.1.1]heptan-3-yl)pyridazin-3-yl)-6-(5-chloro-2-methyl-2H-1,2,3-triazol-4-yl)-4-fluoroisoindolin-1-one], for which the mrna remaining at 1 µM was found to be 115% and the mrna remaining at 10 µM stood at 48%.
Turning to `Cc1nn(C)nc1-c1cc(F)c2c(c1)C(=O)N(c1ccc(OC3CC(C)(C)NC(C)(C)C3)nn1)C2` [Compound 282, 6-(2,5-dimethyl-2H-1,2,3-triazol-4-yl)-4-fluoro-2-(6-((2,2,6,6-tetramethylpiperidin-4-yl)oxy)pyridazin-3-yl)isoindolin-1-one], the mrna remaining at 1 µM amounted to 30% and the mrna remaining at 10 µM was determined as 59%.
